Measurements: patent US20070208067A1, “Tablet Formulations and Processes” (Wyeth, priority 2006, published 2007)

Key:
[1] = Stability studies of the two crystal forms (XRPD, TGA, HPLC); type: physicochemical; settings: for Chemical stability (HPLC) / Crystal form transformation (XRPD and TGA): 40° C./75% RH (monohydrate also 40° C. without humidity control)
Experimental: […] At room temperature, humidity was maintained at 0% RH. Humidity was not controlled for the higher temperatures.
The samples were analyzed by XRPD and TGA.
Non-micronized samples of monohydrate and anhydrate were stored at 40° C./75% RH for three months. The monohydrate was also stored at 40° C. without humidity control. During the three months, the samples were checked after two weeks, one month, two months, and three months.

[2] = Dynamic vapor sorption (hygroscopicity) of the two crystal forms; type: physicochemical; settings: for DVS weight gain: 0–90% RH; for Hygroscopicity (DVS): result in words
Description: Dynamic Vapor Sorption (Allentown, Pa.) was used to measure the hygroscopicity of the anhydrate and monohydrate of the invention (see FIGS. 6 and 7). The step conditions were three hours each at 0%, 30%, 52.5%, 75% and 90% RH, two full cycles.

| Crystal form transformation (XRPD) ([1]; micronized, 25° C./60% RH, three months) | Crystal form transformation (XRPD) ([1]; micronized, 40° C./75% RH, one month) | Chemical stability (HPLC) ([1]; non-micronized, three months) | Crystal form transformation (XRPD and TGA) ([1]; non-micronized, three months) | Crystal form transformation (XRPD) ([1]; non-micronized, 40° C./75% RH, separate study) | DVS weight gain [2] | Hygroscopicity (DVS) [2] | Solid-state stability (XRPD and TGA) ([1]; 56° C., humidity not controlled, one week) | Solid-state stability (XRPD and TGA) ([1]; 70° C., humidity not controlled, 1 day) | Solid-state stability (XRPD and TGA) ([1]; 70° C., humidity not controlled, 4 days) | Solid-state stability (XRPD and TGA) ([1]; 70° C., humidity not controlled, 7 days) | Solid-state stability (XRPD) ([1]; 70° C., one hour) | Solid-state stability (XRPD) ([1]; 90° C., one half hour) | Solid-state stability (XRPD) ([1]; 90° C., one hour) | Solid-state stability (XRPD and TGA) ([1]; room temperature, 0% RH, one week) | SMILES |
| --- | --- | --- | --- | --- | --- | --- | --- | --- | --- | --- | --- | --- | --- | --- | --- |
| did not transform to the monohydrate | partially transform to the monohydrate | chemically stable | did not transform | did not show any obvious transformation | 0.2% gain (0–90% RH) | largely non-hygroscopic | – | – | – | – | – | – | – | – | C=Cc1cc(O)cc2nc(-c3ccc(O)c(F)c3)oc12 [Anhydrate, 2-(3-fluoro-4-hydroxyphenyl)-7-vinyl-1,3-benzoxazol-5-ol] |
| – | – | chemically stable | did not transform | – | 0.1% gain (0–90% RH) | largely non-hygroscopic | no obvious dehydration | no obvious hydration | partially dehydrated | mostly dehydrated | stable | partially dehydrated | completely dehydrated | no obvious dehydration | C=Cc1cc(O)cc2nc(-c3ccc(O)c(F)c3)oc12 [Monohydrate, 2-(3-fluoro-4-hydroxyphenyl)-7-vinyl-1,3-benzoxazol-5-ol] |
